“And” between values parts separate entries of the source, which are not always exact repeats. Equal entries are not always repeated. Inconclusive results and toxic doses are left out. The calls were made as follows: active = survival T/C of 150% or more; inactive = T/C below 125% in these data.
System: B6C3F1 mice, Lewis lung carcinoma iv, survival T/C
Experiment: NCI In Vivo Anticancer Drug Screen. Data for tumor model Lewis Lung Carcinoma (intravenous) in B6C3F1 mice
Conditions: endpoint: median survival time, schedule: Q01DX009 (ip), higher = longer survival
Outline: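 Antitumor activity is assessed in tumor-bearing mice by comparing survival after compound treatment against vehicle-treated controls, reported as a T/C ratio.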

[1] = dose: 25.0 mg/kg/injection, vehicle: saline with Tween-80
[2] = dose: 50.0 mg/kg/injection, vehicle: saline with Tween-80
[3] = dose: 100.0 mg/kg/injection, vehicle: saline with Tween-80
[4] = dose: 6.25 mg/kg/injection, vehicle: saline
[5] = dose: 12.5 mg/kg/injection, vehicle: saline

Measured: T/C

CC[PH+](CC)CC[S-].CC[PH+](CC)CC[S-].[Au+].[Au+]
inactive: dose: 2.5 mg/kg/injection, vehicle: Klucel (hydroxypropylcellulose) (HPC) 99 % of control | dose: 5.0 mg/kg/injection, vehicle: Klucel (hydroxypropylcellulose) (HPC) 100 % of control | dose: 10.0 mg/kg/injection, vehicle: Klucel (hydroxypropylcellulose) (HPC) 98 % of control | dose: 20.0 mg/kg/injection, vehicle: Klucel (hydroxypropylcellulose) (HPC) 96 % of control

CC(=O)O[C@@H]1CO[C@H]2O[C@H]3[C@@H](C(C=O)=C[C@H](O)[C@@H]4C5=C(C(C)C)CC[C@]5(C)CC[C@@]34C)[C@@]2(O)C1=O
inactive: dose: 0.75 mg/kg/injection, vehicle: Klucel (hydroxypropylcellulose) (HPC) 103 % of control | dose: 1.5 mg/kg/injection, vehicle: Klucel (hydroxypropylcellulose) (HPC) 98 % of control | dose: 3.0 mg/kg/injection, vehicle: Klucel (hydroxypropylcellulose) (HPC) 100 % of control

CCCCCCCC(=O)OCC(=O)[C@]1(O)Cc2c(O)c3c(c(O)c2[C@@H](OC2CC(N)C(O)C(C)O2)C1)C(=O)c1c(OC)cccc1C3=O (some centres not stated)
inactive: dose: 1.0 mg/kg/injection, vehicle: saline 102 % of control | dose: 1.0 mg/kg/injection, vehicle: suspension in saline 120 % of control | dose: 2.0 mg/kg/injection, vehicle: saline 124 % of control | dose: 2.0 mg/kg/injection, vehicle: suspension in saline 112 % of control

N=c1c(C(=O)OCc2ccccc2)ncc(CCl)n1O
inactive: [1] 96 % of control | [2] 97 % of control | [3] 109 % of control | dose: 200.0 mg/kg/injection, vehicle: saline with Tween-80 92 % of control

CC1=C(O)C(=O)[C@@H]2O[C@@H]2C1=O
inactive: dose: 0.78 mg/kg/injection, vehicle: saline 94 % of control and 107 % of control | dose: 1.56 mg/kg/injection, vehicle: saline 89 % of control and 103 % of control | dose: 3.12 mg/kg/injection, vehicle: saline 92 % of control and 104 % of control | [4] 95 % of control and 104 % of control | [5] 100 % of control and 101 % of control

CCOc1cc2c(cc1C(C)c1ccc(OC)cc1)OCO2 (configuration not stated)
inactive: dose: 12.5 mg/kg/injection, vehicle: distilled water + Tween-80 + alcohol 104 % of control | dose: 12.5 mg/kg/injection, vehicle: distilled water + alcohol 106 % of control | dose: 25.0 mg/kg/injection, vehicle: distilled water + Tween-80 + alcohol 103 % of control | dose: 25.0 mg/kg/injection, vehicle: distilled water + alcohol 104 % of control | dose: 50.0 mg/kg/injection, vehicle: DMSO 102 % of control | dose: 50.0 mg/kg/injection, vehicle: distilled water + Tween-80 + alcohol 103 % of control | dose: 50.0 mg/kg/injection, vehicle: distilled water + alcohol 112 % of control | dose: 100.0 mg/kg/injection, vehicle: distilled water + alcohol 108 % of control | dose: 200.0 mg/kg/injection, vehicle: distilled water + alcohol 110 % of control

CN(C)C1C(=O)C(C(=O)NP(=O)(NCCCO)N(CCCl)CCCl)=C(O)C2(O)C(=O)C3=C(O)c4c(O)cccc4C(C)(O)C3CC12 (configuration not stated)
inactive: [1] 104 % of control | [2] 119 % of control | [3] 93 % of control

CCC12C[N+]3([O-])CCc4c([nH]c5ccccc45)C(C(=O)OC)(c4cc5c(cc4OC)N(C)C4C(O)(C(=O)OC)C(OC(C)=O)C6(CC)C=CCN7CCC54C76)CC(C3)C1O2 (configuration not stated)
inactive: dose: 0.62 mg/kg/injection, vehicle: water 93 % of control | dose: 1.25 mg/kg/injection, vehicle: water 94 % of control | dose: 2.5 mg/kg/injection, vehicle: water 97 % of control | dose: 5.0 mg/kg/injection, vehicle: water 95 % of control | dose: 10.0 mg/kg/injection, vehicle: water 98 % of control | dose: 20.0 mg/kg/injection, vehicle: water 101 % of control

CCc1ncnc2cc(OCC3CO3)c(OC)cc12 (configuration not stated)
inactive: dose: 3.13 mg/kg/injection, vehicle: saline 98 % of control | [4] 100 % of control and 106 % of control | [5] 102 % of control and 104 % of control | dose: 25.0 mg/kg/injection, vehicle: saline 117 % of control and 118 % of control

Reference: PubChem BioAssay AID276 (DTP/NCI, 2004)
